Results published in patent publication US6544984B1, “2,3,4,5-tetrahydro-1H-(1,4)benzodiazepine-3-hydroxamic acids” (American Cyanamid Company, priority 1999, dated 2003).
pIC50: −log10 of the molar value. Read-outs that look alike come from different tables or passages of the source.

Assays:
MMP-1 = target: T1, MMP-1 (Homo sapiens, UniProt P03956); experiment: In vitro collagenase assay (fluorogenic peptide substrate); assay type: biochemical; details: human recombinant fibroblast collagenase
T1 construct: human recombinant fibroblast collagenase (truncated, mw=18,828)
T1 sequence (P03956 100-269 limits assumed): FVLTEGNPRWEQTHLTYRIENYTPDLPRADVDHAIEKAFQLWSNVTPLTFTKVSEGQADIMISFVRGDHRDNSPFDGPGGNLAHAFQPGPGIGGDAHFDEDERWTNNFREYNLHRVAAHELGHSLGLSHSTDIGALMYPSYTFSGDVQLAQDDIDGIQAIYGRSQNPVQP
Excerpt: In Vitro Collagenase Assay
This assay was based on the cleavage of a peptide substrate ((Dnp-Pro-Cha-Gly-Cys(Me)-His-Ala-Lys(NMa)-NH2), available from Peptide International, Inc.) by collagenase releasing the fluorescent NMa group which was quantitated on the fluorometer as disclosed in Bickett et al., “A High Throughput Fluorogenic Substrate for Interstitial Collagenase (MMP-1) and Gelatinase (MMP-9)”, Anal. Biochem., 212:58-64, (1993). Dnp quenches the NMa fluorescence in the intact substrate.
The assay was run in HCBC assay buffer (50 mM HEPES, pH 7.0, 5 mM Ca^+2, 0.02% Brij, 0.5% Cysteine), with human recombinant fibroblast collagenase (truncated, mw=18,828, from Wyeth-Ayerst Research, Radnor, Pa.). The substrate was dissolved in methanol and stored frozen in 1 mM aliquots. Collagenase was stored frozen in buffer in 25 μM aliquots. In conducting the assay, the substrate was dissolved in HCBC buffer to a final concentration of 10 μM and collagenase to a final concentration of 5 nM. The compounds being examined were dissolved in methanol, DMSO, or HCBC. The methanol and DMSO were diluted in HCBC to <1.0%. The compounds were added to a 96 well plate containing enzyme and the reaction was started by the addition of substrate.
(§1) The reaction was read (excitation 340 nm, emission 444 nm) for 10 min. and the increase in fluorescence over time was plotted as a linear line. The slope of the line was calculated representing the reaction rate. The linearity of the reaction rate was confirmed (r^2>0.85). The mean (x±sem) of the control rate was calculated and compared for statistical significance (p<0.05) with drug-treated rates using Dunnett's multiple comparison test.

MMP-9 = target: T2, MMP-9 (Homo sapiens, UniProt P14780); experiment: In vitro gelatinase assay (thiopeptide substrate, DTNB); assay type: biochemical; details: human neutrophil gelatinase B
T2 construct: human neutrophil gelatinase B; from tissue; host or cells: human neutrophils
T2 sequence (P14780 94-707): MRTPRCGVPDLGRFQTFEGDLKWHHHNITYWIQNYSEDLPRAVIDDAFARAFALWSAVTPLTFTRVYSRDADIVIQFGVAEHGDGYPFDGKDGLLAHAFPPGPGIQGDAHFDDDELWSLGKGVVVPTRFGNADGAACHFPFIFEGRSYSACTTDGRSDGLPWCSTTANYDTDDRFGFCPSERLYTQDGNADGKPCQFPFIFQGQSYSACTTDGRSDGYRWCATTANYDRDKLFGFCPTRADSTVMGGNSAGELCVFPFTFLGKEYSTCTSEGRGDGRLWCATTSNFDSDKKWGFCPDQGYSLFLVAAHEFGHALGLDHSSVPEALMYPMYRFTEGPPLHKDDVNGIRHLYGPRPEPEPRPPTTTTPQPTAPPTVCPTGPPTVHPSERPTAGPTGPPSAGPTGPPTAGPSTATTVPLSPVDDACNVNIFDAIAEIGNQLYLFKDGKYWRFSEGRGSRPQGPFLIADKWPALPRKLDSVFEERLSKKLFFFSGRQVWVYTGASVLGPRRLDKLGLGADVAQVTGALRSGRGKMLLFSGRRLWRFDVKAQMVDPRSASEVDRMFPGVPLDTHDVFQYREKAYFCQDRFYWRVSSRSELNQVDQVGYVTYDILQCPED
Method: In Vitro Gelatinase Assay
The assay is based on the cleavage of the thiopeptide substrate ((Ac-Pro-Leu-Gly(2-mercapto-4-methyl-pentanoyl)-Leu-Gly-OEt), available from Bachem Bioscience) by the enzyme gelatinase, releasing the substrate product which reacts calorimetrically with DTNB ((5,5′-dithio-bis(2-nitro-benzoic acid)). This assay is disclosed in Weingarten et al., “Spectrophotometric Assay for Vertebrate Collegenase”, Anal. Biochem., 147:437-440, (1985). The enzyme activity is measured by the rate of the color increase.
The thiopeptide substrate was made up fresh as a 20 mM stock in 100% DMSO and the DTNB was dissolved in 100% DMSO as a 100 mM stock and stored in the dark at room temperature. The substrate and the DTNB were diluted together to 1 mM with substrate buffer (50 mM HEPES, pH 7.5, 5 mM CaCl2) before use. The stock of human neutrophil gelatinase B was diluted with assay buffer (50 mM HEPES, pH 7.5, 5 mM CaCl2, 0.02% Brij) to a final concentration of 0.15 nM.
The assay buffer, enzyme, DTNB/substrate (500 μM final concentration) and vehicle or inhibitor were added to a 96 well plate (total reaction volume of 200 μl) and the increase in color was monitored spectrophotometrically for 5 minutes at 405 nm on a plate reader.
The increase in OD405 was plotted and the slope of the line was calculated. The slope represents the reaction rate. The linearity of the reaction rate was confirmed (r^2>0.85) and the mean (x±sem) of the control rate was calculated and compared for statistical significance (p<0.05) with drug-treated rates using Dunnett's multiple comparison test.

MMP-13 = MMP-13 (Homo sapiens, UniProt P45452); experiment: MMP-13 inhibition; assay type: biochemical; details: for IC50: read-out: IC50 (nM) MMP-13
TACE = target: T3, TACE (Homo sapiens, UniProt P78536); experiment: Procedure for measuring TACE inhibition (fluorescent peptidyl substrate); assay type: biochemical; details: for IC50: read-out: IC50 (nM) TACE
T3 construct: purchased Immunex
T3 sequence (P78536 215-824): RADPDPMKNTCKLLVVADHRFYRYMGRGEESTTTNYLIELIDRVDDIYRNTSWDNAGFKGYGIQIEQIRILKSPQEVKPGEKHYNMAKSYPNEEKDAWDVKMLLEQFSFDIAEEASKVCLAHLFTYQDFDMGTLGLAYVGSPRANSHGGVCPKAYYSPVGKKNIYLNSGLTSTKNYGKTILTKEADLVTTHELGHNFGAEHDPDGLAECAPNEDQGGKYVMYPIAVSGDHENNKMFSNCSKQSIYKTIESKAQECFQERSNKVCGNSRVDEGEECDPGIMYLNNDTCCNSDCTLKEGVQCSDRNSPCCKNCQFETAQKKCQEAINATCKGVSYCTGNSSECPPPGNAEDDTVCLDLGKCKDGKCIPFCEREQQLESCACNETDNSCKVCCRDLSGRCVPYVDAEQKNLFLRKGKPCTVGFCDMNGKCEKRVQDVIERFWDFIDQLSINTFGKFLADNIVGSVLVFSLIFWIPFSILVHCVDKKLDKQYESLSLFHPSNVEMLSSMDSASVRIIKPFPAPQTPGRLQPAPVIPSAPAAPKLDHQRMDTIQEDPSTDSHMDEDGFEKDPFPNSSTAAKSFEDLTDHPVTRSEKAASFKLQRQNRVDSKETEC
Method: Procedure for Measuring TACE Inhibition
The plates were incubated for 10 minutes at room temperature. The reaction was initiated by addition of a fluorescent peptidyl substrate (final concentration 100 μM) to each well with shaking on a shaker for 5 sec.
as §1, with “420” for “444”, “and this represents” for “representing”, “The linearity of the reaction rate was confirmed (r^2>0.85).” left out

Structure (SMILES) | IC50 (MMP-1) | IC50 (MMP-9) | IC50 (MMP-13) | IC50 (TACE) | pIC50 (MMP-13) | pIC50 (TACE) | melting point
CC#CCOc1ccc(S(=O)(=O)N2Cc3ccccc3N(C(C)=O)CC2C(=O)NO)cc1 (centres unmarked) [Example 1, 1-Acetyl-4-(4-but-2-ynyloxbenzenesulfonyl)-2,3,4,5-tetrahydro-1H-[1,4]benzodiazepine-3-carboxylic acid, hydroxyamide] | 835 nM | 228 nM | 77 nM | 16 nM | – | – | –
CC#CCOc1ccc(S(=O)(=O)N2Cc3ccccc3N(C(=O)c3cccs3)CC2C(=O)NO)cc1 (centres unmarked) [Example 2, 4-(4-But-2-ynyloxybenzenesulfonyl)-1-(2-thienylcarbonyl)-2,3,4,5-tetrahydro-1H-[1,4]benzodiazepine-3-carboxylic acid, hydroxyamide] | 250 nM | 24 nM | 8 nM | 38 nM | – | – | –
CC#CCOc1ccc(S(=O)(=O)N2Cc3ccccc3N(C(=O)c3ccccc3)CC2C(=O)NO)cc1 (centres unmarked) [Example 3, 1-Benzoyl-4-(4-but-2-ynyloxybenzenesulfonyl)-2,3,4,5-tetrahydro-1H-[1,4]-benzodiazepine-3-carboxylic acid, hydroxyamide] | – | – | 10 nM | – | – | – | –
CC#CCOc1ccc(S(=O)(=O)N2Cc3ccccc3N(C(=O)c3ccco3)CC2C(=O)NO)cc1 (centres unmarked) [Example 57, 4-(4-But-2-ynyloxybenzenesulfonyl)-1-(2-furanylcarbonyl)-2,3,4,5-tetrahydro-1H-[1,4]benzodiazepine-3-carboxylic acid hydroxyamide] | 125 nM | 2 nM | – | – | 8.15 | 7.48 | 119 to 120 °C
CC#CCOc1ccc(S(=O)(=O)N2Cc3ccccc3N(C(=O)C3CC3)CC2C(=O)NO)cc1 (centres unmarked) [Example 58, 1-Cyclopropylcarbonyl-4-(4-but-ynyloxybenzenesulfonyl)-2,3,4,5-tetrahydro-1H-[1,4]benzodiazepine-3-carboxylic acid, hydorxyamide] | 841 nM | 33 nM | 29 nM | – | – | – | –
